From PubChem BioAssay (NCI)
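Where inhibition never reached the appropriate level, the endpoint shown equals the highest concentration tested. Otherwise, values were interpolated linearly from a five-concentration, 48-hour dose response in 96-well plates. GI50 is the concentration that inhibits growth by half. TGI denotes the concentration required for complete inhibition of growth.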

Tests used:
Test in all cases: growth of human tumour cells (NCI), 48 h
HCT-15 colon = test system: HCT-15 colon
ACHN renal = test system: ACHN renal
SF-295 CNS = test system: SF-295 CNS
NCI-H460 lung = test system: NCI-H460 lung
HL-60(TB) leukemia = test system: HL-60(TB) leukemia
SF-539 CNS = test system: SF-539 CNS
M14 melanoma = test system: M14 melanoma
T-47D breast = test system: T-47D breast
SNB-19 CNS = test system: SNB-19 CNS
HOP-92 NSCLC = test system: HOP-92 NSCLC
K-562 leukemia = test system: K-562 leukemia

O=C1c2ccccc2-c2c1c1ccccc1c(=O)n2CCNCCNCCNCCn1c2c(c3ccccc3c1=O)C(=O)c1ccccc1-2
GI50 (HCT-15 colon): 579 nM
TGI (HCT-15 colon): 2110 nM
GI50 (ACHN renal): 53.6 nM
TGI (ACHN renal): 555 nM
GI50 (SF-295 CNS): 1400 nM
TGI (SF-295 CNS): 7580 nM
GI50 (NCI-H460 lung): 70.7 nM
TGI (NCI-H460 lung): > 100000 nM
GI50 (HL-60(TB) leukemia): 1800 nM
GI50 (SF-539 CNS): 273 nM
TGI (SF-539 CNS): 1580 nM
GI50 (M14 melanoma): 1610 nM
TGI (M14 melanoma): 3500 nM
GI50 (T-47D breast): 2950 nM
TGI (T-47D breast): > 100000 nM
GI50 (SNB-19 CNS): 2350 nM
TGI (SNB-19 CNS): > 100000 nM
GI50 (HOP-92 NSCLC): 2900 nM
TGI (HOP-92 NSCLC): > 100000 nM
GI50 (K-562 leukemia): 253 nM
